Measured values: article PMC10082216 (Nature Communications, 2023)
Several values for one entry are separate records, joined by “and”; a condition that tells them apart may be missing. Identical values can stand only once. Like-named read-outs stand apart in the source and are kept apart here.

Experiment: TD-6450 phase I clinical study (SAD/MAD): pharmacokinetics
Type: in vivo, human
Details: for Cmax: read-out: Cmax Mean ± SD; for half-life: read-out: t1/2 Mean ± SD (converted)
Procedure: Primary and secondary outcomes were pre-defined as follows: Safety and tolerability as a primary outcome, pharmacokinetics as a secondary outcome. Safety and tolerability were evaluated using standard measures, including adverse event (AE) monitoring, clinical laboratory tests (hematology, serum chemistry, coagulation, and urinalysis), vital signs, physical examinations, and 12-lead electrocardiograms (ECGs). […]
This study was conducted in two parts, Part A (SAD) and Part B (MAD). For the Part A, the age of enrolled subjects ranged from 20 to 60 years, with a mean age range of 32.1 to 46.2 years. Most subjects were male (73 total subjects) and most were white (55 subjects) or black (22 subjects). For Part B of the study, ages ranged from 23 to 60 years with a similar mean age across treatment groups. Most subjects were male (25 total subjects) and all were either white (18 subjects) or black (12 subjects). For each part of the study, the mean body mass index (BMI) and creatinine clearance were similar across treatment groups. […] Part A: Healthy subjects were sequentially enrolled and randomly assigned to each dose cohort (up to 10 dose-ascending cohorts were planned, including a fed arm in the food effect cohort) to receive either a single dose of TD-6450 or placebo. For each dose cohort, 8 subjects were randomized in a 3:1 ratio (6 subjects received TD-6450 and 2 subjects received placebo). The starting dose of TD-6450 was 0.5 mg with a planned maximum dose of 1000 mg. Upon review of the 500-mg cohort PK data, the decision was made to not escalate to the 1000-mg cohort because of exposure saturation at ≥ 500 mg. The following doses were administered: 0.5 mg, 1.5 mg, 5 mg, 15 mg, 30 mg, 60 mg, 120 mg, 240 mg, and 500 mg. Part B: Healthy subjects were sequentially enrolled in 3 ascending dose cohorts (TD-6450 60 mg, 120 mg, and 240 mg) and randomly assigned to receive either TD-6450 or placebo as once daily doses for 14 days. For each dose cohort, 10 subjects were randomized in a 4:1 ratio (8 subjects received TD-6450 and 2 subjects received placebo). Blinded safety, tolerability, and available PK data after each dose cohort were reviewed by the Safety Data Review Committee (SDRC) before escalation to the next dosing cohort for both part A and B. Subjects of the clinical study were randomly assigned to each cohort. Randomizations codes were assigned to the subjects. All study subjects, study investigators, and the sponsor’s staff involved in the conduct of the study were blinded to treatment assignment. The only personnel who had access to the randomization code before database lock were: The pharmacist or pharmacy staff member who prepared drug or placebo capsules for administration to the subject according to the randomization code and the bioanalytical contract laboratory that analyzed the PK samples (plasma and urine).

[1] = Male subjects, SAD arm NCT02022306, Dose 30.00, 3 Hours
[2] = Male subjects, SAD arm NCT02022306, Dose 30.00, 4 Hours
[3] = Male subjects, SAD arm NCT02022306, Dose 30.00, 72 Hours
[4] = Male subjects, SAD arm NCT02022306, Dose 30.00, 96 Hours
[5] = Male subjects, SAD arm NCT02022306, Dose 30.00, 120 Hours
[6] = Male subjects, SAD arm NCT02022306, Dose 30.00, 144 Hours
[7] = Male subjects, SAD arm NCT02022306, Dose 30.00, 168 Hours
[8] = Male subjects, SAD arm NCT02022306, Dose 30.00, Predose
[9] = both sexes, human, plasma, oral, 1.5 mg, SAD 1.5 mg
[10] = both sexes, human, plasma, oral, 5 mg, SAD 5 mg
[11] = both sexes, human, plasma, oral, 15 mg, SAD 15 mg
[12] = both sexes, human, plasma, oral, 30 mg, SAD 30 mg

Which Concentration (Female subjects, SAD arm NCT02022306, Dose 0.50, Predose) does the source give for `CNC(=O)N1C[C@@H](C)N(c2ccc(C(=O)Nc3ccc(-c4ccc(-c5c[nH]c([C@@H]6CCCN6C(=O)[C@@H](NC(=O)OC)C(C)C)n5)cc4)c(OC(F)(F)F)c3)cn2)C[C@@H]1C` [TD-6450] here?
The Concentration was 0.00 ng/mL.

And the Concentration (Female subjects, SAD arm NCT02022306, Dose 5.00, Predose)?
Its Concentration is 0.00 ng/mL.

And the Concentration (Female subjects, SAD arm NCT02022306, Dose 15.00, Predose)?
Its Concentration is 0.00 ng/mL.

And the Concentration (Female subjects, SAD arm NCT02022306, Dose 30.00, 3 Hours)?
The Concentration was 41.80 ng/mL.

And the Concentration (Female subjects, SAD arm NCT02022306, Dose 30.00, 4 Hours)?
The Concentration was 44.70 ng/mL.

And the Concentration (Female subjects, SAD arm NCT02022306, Dose 30.00, 6 Hours)?
Its Concentration is 43.90 ng/mL.

And the Concentration (Female subjects, SAD arm NCT02022306, Dose 30.00, 8 Hours)?
Its Concentration is 35.40 ng/mL.

What about the Concentration (Female subjects, SAD arm NCT02022306, Dose 30.00, 12 Hours) of the same molecule?
The Concentration was 27.90 ng/mL.

What about the Concentration (Female subjects, SAD arm NCT02022306, Dose 30.00, 24 Hours) of the same molecule?
The Concentration was 20.20 ng/mL.

What about the Concentration (Female subjects, SAD arm NCT02022306, Dose 30.00, 48 Hours) of the same molecule?
The Concentration was 17.50 ng/mL.

And the Concentration (Female subjects, SAD arm NCT02022306, Dose 30.00, 72 Hours)?
Its Concentration is 12.70 ng/mL.

And the Concentration (Female subjects, SAD arm NCT02022306, Dose 30.00, 96 Hours)?
Its Concentration is 9.33 ng/mL.

What about the Concentration (Female subjects, SAD arm NCT02022306, Dose 30.00, 120 Hours) of the same molecule?
Its Concentration is 7.89 ng/mL.

What about the Concentration (Female subjects, SAD arm NCT02022306, Dose 30.00, 144 Hours) of the same molecule?
Its Concentration is 6.17 ng/mL.

And the Concentration (Female subjects, SAD arm NCT02022306, Dose 30.00, 168 Hours)?
The Concentration was 4.12 ng/mL.

What about the Concentration (Female subjects, SAD arm NCT02022306, Dose 30.00, Predose) of the same molecule?
Its Concentration is 0.00 ng/mL.

And the Concentration (Female subjects, SAD arm NCT02022306, Dose 60.00, Predose)?
Its Concentration is 0.00 ng/mL.

And the Concentration (Male subjects, SAD arm NCT02022306, Dose 0.50, Predose)?
The Concentration was 0.00 ng/mL.

And the Concentration (Male subjects, SAD arm NCT02022306, Dose 1.50, Predose)?
Its Concentration is 0.00 ng/mL.

And the Concentration (Male subjects, SAD arm NCT02022306, Dose 5.00, Predose)?
Its Concentration is 0.00 ng/mL.

What about the Concentration (Male subjects, SAD arm NCT02022306, Dose 15.00, Predose) of the same molecule?
Its Concentration is 0.00 ng/mL.

What about the Concentration [1] of the same molecule?
The Concentration was 16.10 ng/mL.

What about the “Concentration (ng/ml)” value [1] of the same molecule?
The value was 14.80 ng/mL.

What about the Concentration [2] of the same molecule?
Its Concentration is 17.80 ng/mL.

What about the “Concentration (ng/ml)” value [2] of the same molecule?
Its value is 18.90 ng/mL.

And the Concentration (Male subjects, SAD arm NCT02022306, Dose 30.00, 6 Hours)?
Its Concentration is 21.60 ng/mL.

And the Concentration (Male subjects, SAD arm NCT02022306, Dose 30.00, 8 Hours)?
The Concentration was 20.90 ng/mL.

What about the Concentration (Male subjects, SAD arm NCT02022306, Dose 30.00, 12 Hours) of the same molecule?
The Concentration was 16.40 ng/mL.

What about the Concentration (Male subjects, SAD arm NCT02022306, Dose 30.00, 24 Hours) of the same molecule?
Its Concentration is 12.70 ng/mL.

And the Concentration (Male subjects, SAD arm NCT02022306, Dose 30.00, 48 Hours)?
Its Concentration is 9.02 ng/mL.

And the Concentration [3]?
The Concentration was 7.45 ng/mL.

And the “Concentration (ng/ml)” value [3]?
The value was 9.39 ng/mL.

What about the Concentration [4] of the same molecule?
Its Concentration is 6.04 ng/mL.

And the “Concentration (ng/ml)” value [4]?
The value was 7.13 ng/mL.

And the Concentration [5]?
Its Concentration is 4.98 ng/mL.

What about the “Concentration (ng/ml)” value [5] of the same molecule?
Its value is 5.80 ng/mL.

And the Concentration [6]?
The Concentration was 3.71 ng/mL.

And the “Concentration (ng/ml)” value [6]?
The value was 4.24 ng/mL.

What about the Concentration [7] of the same molecule?
The Concentration was 3.30 ng/mL.

What about the “Concentration (ng/ml)” value [7] of the same molecule?
The value was 3.28 ng/mL.

And the Concentration [8]?
The Concentration was 0.00 ng/mL.

What about the “Concentration (ng/ml)” value [8] of the same molecule?
Its value is 0.00 ng/mL.

And the “Concentration (ng/ml)” value (Male subjects, SAD arm NCT02022306, Dose 60.00, 8 Hours)?
Its value is 61.90 ng/mL and 92.80 ng/mL and 97.50 ng/mL and 65.40 ng/mL.

What about the “Concentration (ng/ml)” value (Male subjects, SAD arm NCT02022306, Dose 60.00, Predose) of the same molecule?
The value was 0.00 ng/mL.

What about the “Concentration (ng/ml)” value (Male subjects, SAD arm NCT02022306, Dose 120.00, Predose) of the same molecule?
The value was 0.00 ng/mL.

And the “Concentration (ng/ml)” value (Male subjects, SAD arm NCT02022306, Dose 240.00, Predose)?
Its value is 0.00 ng/mL.

What about the “Concentration (ng/ml)” value (Male subjects, SAD arm NCT02022306, Dose 500.00, 30 Minutes) of the same molecule?
The value was 2.54 ng/mL and 3.61 ng/mL and 2.21 ng/mL.

What about the “Concentration (ng/ml)” value (Male subjects, SAD arm NCT02022306, Dose 500.00, Predose) of the same molecule?
The value was 0.00 ng/mL.

What about the Cmax (both sexes, human, plasma, oral, 0.5 mg, SAD 0.5 mg) of the same molecule?
Its Cmax is 0.5 ± 0.1 nM.

And the Cmax [9]?
Its Cmax is 1.5 ± 0.4 nM.

What about the half-life [9] of the same molecule?
Its half-life is 3.51 days.

And the Cmax [10]?
Its Cmax is 5.37 ± 1.8 nM.

What about the half-life [10] of the same molecule?
Its half-life is 2.99 ± 0.217 days.

And the Cmax [11]?
The Cmax was 21 ± 7.9 nM.

What about the half-life [11] of the same molecule?
The half-life was 3.21 ± 0.592 days.

What about the Cmax [12] of the same molecule?
Its Cmax is 37.4 ± 19 nM.

And the half-life [12]?
Its half-life is 2.79 ± 0.375 days.

What about the Cmax at 1 day (both sexes, human, plasma, oral, 60 mg, MAD 60 mg, day 1, read-out: Cmax Mean ± SD, D1) of the same molecule?
Its Cmax at 1 day is 97.4 nM.

What about the Cmax at 14 day (both sexes, human, plasma, oral, 60 mg, MAD 60 mg, day 14, read-out: Cmax Mean ± SD, D14) of the same molecule?
Its Cmax at 14 day is 398 ± 146 nM.

And the half-life at 14 day (both sexes, human, plasma, oral, 60 mg, MAD 60 mg, day 14, read-out: t1/2 Mean ± SD, D14 (converted))?
Its half-life at 14 day is 2.6 ± 0.417 days.
